Eleven compounds from ChEMBL document CHEMBL3044989, “Structurecytotoxicity relationship of a novel series of miconazole-like compounds” (Med Chem Res, 2012) can be followed below.

Assay [1] concerns Escherichia coli. Kind of assay: Antimicrobial activity against Escherichia coli (DH5alpha) after 16 hr by spectrophotometry. As to conditions: DH5[alpha]. The format is functional, organism-based.
The subject of assay [2] is K562. Briefly: Cytotoxicity against Homo sapiens (human) K562 cells at 20 to 80 uM after 24 hr by MTT assay. The format is functional, cell-based. On the technique in general: Formazan colour is commonly taken as a measure of viable cells.

pIC50: −log10 of the molar value. Active and inactive are the calls of the source. The rule behind the calls is not given here.

Compound `COc1ccc(/C(Cn2cnc3ccccc32)=N\Nc2ccccc2)cc1` had a pIC50 in assay [1] of 4.86.

Consider `O=C1CNC(=O)N1C/C(=N/Nc1ccccc1)c1ccccc1`, for which, in assay [2], the result was Active. The compound also had a pIC50 in assay [1] of 5.51.

`c1ccc(N/N=C(/Cn2nnc3ccccc32)c2ccccc2)cc1`: the outcome in assay [2] was Active. This compound also showed a pIC50 in assay [1] of 5.47.

The compound `c1ccc(N/N=C(/Cn2ccnc2-c2ccccc2)c2ccccc2)cc1` had a pIC50 in assay [1] of 4.77.

As for `O=c1ccn(C/C(=N/Nc2ccccc2)c2ccccc2)c(=O)[nH]1`, the pIC50 in assay [1] was 4.24.

As to `c1ccc(N/N=C(/Cn2cnc3ccccc32)c2ccccc2)cc1`, the pIC50 in assay [1] was 4.91. This pIC50 lies 0.67 log units higher than the previous one.

In assay [1], `c1ccc(N/N=C(/Cn2ccnc2)c2ccccc2)cc1` gave a pIC50 of 5.12.

Turning to `O=c1cnn(C/C(=N/Nc2ccccc2)c2ccccc2)c(=O)[nH]1`, the result in assay [2] was Active. In addition, the pIC50 in assay [1] was 4.84.

In the case of `COc1ccc(/C(Cn2ccc(=O)[nH]c2=O)=N\Nc2ccccc2)cc1`, the negative-log IC50 (pIC50) in assay [1] was 5.21.

For the compound `Cc1cn(C/C(=N/Nc2ccccc2)c2ccccc2)c(=O)[nH]c1=O`, in assay [1], the pIC50 is 5.15.

In assay [1], `O=c1[nH]c(=O)n(C/C(=N/Nc2ccccc2)c2ccccc2)cc1Cl` had a pIC50 of 5.32.

For orientation: pIC50 means −log10 of the IC50, conventionally taken in molar units. Lower therefore signals a high IC50.
